{"source": "patent US20250099582A1", "about": "“TREATMENT OF PATIENTS DIAGNOSED WITH PANCREATIC DUCTAL ADENOCARCINOMA USING MONOCLONAL ANTIBODIES AGAINST THE EPIDERMAL GROWTH FACTOR RECEPTOR (EGFR)” (INNOCIMAB PTE LTD, priority 2015, published 2025)", "key": {"[1]": {"test": "Same clinical trial: safety, serious adverse events (SAEs)", "format": "in vivo, human", "details": "for number of serious adverse events (SAEs) reported in the arm: 93 patients per arm; for patients with serious adverse events (SAEs): of 93 patients in the arm", "protocol": "(§1) One hundred and ninety two (192) newly diagnosed patients with locally advanced or metastatic pancreatic cancer were randomized and recruited into 2 arms, on the treatment arm patients were administered administered i.v infusion of nimotuzumab at 400 mg dose once a week until progressive disease or unacceptable toxicity and gemcitabine 1000 mg/m^2 once weekly for 3 weeks, followed by a 1-week rest (d1, 8, 15; q28) and on the control arm patients were administered i.v infusion of placebo once a week until progressive disease or unacceptable toxicity and gemcitabine 1000 mg/m^2 once weekly for 3 weeks, followed by a 1-week rest (d1, 8, 15; q28).\n(§2) As a primary endpoint, overall survival (OS) in the intention-to-treat (ITT) population was evaluated. The OS was assessed by the date of the last visit, death or loss of the follow up. The OS was initially calculated for all population and then a subset analysis was run taking into consideration the KRAS status of each of the patients on each treatment arm. Secondary endpoints included progression free survival (PFS), assessed by the day of the progression or the death, safety, assessed by the incidence of adverse events (AE) or serious adverse events (SAE), objective response rate (ORR), assessed by the number of patients on each treatment arm with Complete Response (CR) and Partial Response (PR) to the treatment ((CR+PR)/N, No. patients in the arm)) and Quality of Life (QoL), assessed using EORTC quality of life questionnaire QLQ-C30 version 2.0 (EORTC, NL)."}, "[2]": {"test_system": "locally advanced or metastatic pancreatic cancer patients", "test": "Randomized clinical trial of gemcitabine plus nimotuzumab versus gemcitabine plus placebo: survival by KRAS status", "format": "in vivo, human", "details": "for overall survival (OS), Kaplan-Meier, versus placebo-gemcitabine arm / progression-free-survival (PFS), Kaplan-Meier, versus placebo-gemcitabine arm: nimotuzumab 400 mg i.v. once weekly + gemcitabine 1000 mg/m^2 (d1, 8, 15; q28)", "protocol": "In this clinical trial patients with previously untreated, unresectable, locally advanced or metastatic pancreatic adenocarcinoma received gemcitabine (1000 mg/m^2/30-min iv once weekly (d1, 8, 15; q28)) and nimotuzumab (400 mg 30-min iv once weekly), or placebo until disease progression or unmanageable toxicity. The primary endpoint in this study was overall survival (OS) in the intention-to-treat (ITT) population. The secondary endpoints included progression free survival (PFS), safety, objective response rate (ORR), and Quality of Life (QoL).\nas §1\nTumor response was assessed using CT (Computed Tomography) or MRI (Magnetic Resonance Imaging) and statistically analyzed using RECIST (Response Evaluation Criteria in Solid Tumors), which provides guidelines for identifying complete response, partial response, stable disease, or progressive disease based on tumor size (see, e.g., Therasse et al., February 2000, “New Guidelines to Evaluate the Response to Treatment in Solid Tumors,” J. Natl. Cancer Inst. 92 (3): 205-216) and overall survival was assessed by the last patient visit, death or loss of follow up.\nOut of 192 patients that were randomized into 2 arms, tumor samples were taken from 101 patients (49 from the control arm and 52 from the treatment arm).\nTo determine if KRAS status correlates with survival the 101 samples were tested. From the KRAS analysis of the 101 samples, 34 samples were KRAS Wild Type (20 from the control arm and 14 from the treatment arm) and 67 samples has the mutation of the KRAS (29 from the control arm and 38 from the treatment arm).\nas §2\nProgression-free-survival (PFS) is defined as the length of time during and after the treatment of a disease, such as cancer, that a patient lives with the disease without worsening of the symptoms and was measured from date of randomization to the occurrence of progression or death or last date of observation without progression."}, "[3]": {"test_system": "PDAC patients", "details": "cited from earlier work"}, "[4]": {"details": "patients with KRAS mutated, FIG. 3"}, "[5]": {"details": "patients with KRAS wild type, FIG. 4"}}, "note": "Entries after “also recorded” stand apart in the source; their conditions may differ."}
{"compound": "Nc1ccn([C@@H]2O[C@H](CO)[C@@H](O)C2(F)F)c(=O)n1", "note": "[placebo-gemcitabine, gemcitabine, reference compound]", "values": [{"measurement": "number of serious adverse events (SAEs) reported in the arm", "setting": "[1]", "result": 104, "unit": "SAEs"}, {"measurement": "patients with serious adverse events (SAEs)", "setting": "[1]", "result": 65.6, "unit": "%"}]}
{"compound": "nimotuzumab-gemcitabine: treatment arm: nimotuzumab 400 mg i.v. once a week plus gemcitabine 1000 mg/m^2 once weekly for 3 weeks, 1-week rest", "values": [{"measurement": "overall survival (OS), Kaplan-Meier, versus placebo-gemcitabine arm", "setting": "[2]; [4]", "result": "no difference"}, {"measurement": "progression-free-survival (PFS), Kaplan-Meier, versus placebo-gemcitabine arm", "setting": "[2]; [4]", "result": "no difference"}, {"measurement": "overall survival (OS), Kaplan-Meier, versus placebo-gemcitabine arm", "setting": "[2]; [5]", "result": "significant difference in favour of the treatment arm; also recorded: significant improvement"}, {"measurement": "progression-free-survival (PFS), Kaplan-Meier, versus placebo-gemcitabine arm", "setting": "[2]; [5]", "result": "significant difference in favour of the treatment arm; also recorded: significant improvement"}, {"measurement": "overall survival (OS), Kaplan-Meier, versus placebo-gemcitabine arm", "setting": "[2]; patients with KRAS wild type, FIG. 4, listed as nimotuzumab and gemcitabine", "result": "significantly improved"}, {"measurement": "increase of median overall survival compared to control arm (placebo-gemcitabine)", "setting": "[2]; subgroup of KRAS WT", "result": 6, "unit": "months"}, {"measurement": "number of serious adverse events (SAEs) reported in the arm", "setting": "[1]", "result": 108, "unit": "SAEs"}, {"measurement": "patients with serious adverse events (SAEs)", "setting": "[1]", "result": 58.1, "unit": "%"}]}
{"compound": "nimotuzumab: anti-EGFR humanized monoclonal antibody produced by the cell line h-R3 deposited as ECACC 951110101", "values": [{"measurement": "SAE related to study drug: general physical health deterioration, subjects", "setting": "[1]; nimotuzumab arm", "result": 3.23, "unit": "%"}, {"measurement": "SAE related to study drug: nausea, subjects", "setting": "[1]; nimotuzumab arm", "result": 2.15, "unit": "%"}, {"measurement": "SAE related to study drug: thrombocytopenia, subjects", "setting": "[1]; nimotuzumab arm", "result": 2.15, "unit": "%"}, {"measurement": "SAE related to study drug: vomiting, subjects", "setting": "[1]; nimotuzumab arm", "result": 2.15, "unit": "%"}, {"measurement": "patients with SAEs reported to be related to the study drug", "setting": "[1]; nimotuzumab arm, of 93 patients", "result": 16.1, "unit": "%"}, {"measurement": "number of SAEs reported to be related to the study drug", "setting": "[1]; nimotuzumab arm, of the 108 SAEs", "result": 26, "unit": "SAEs"}]}
{"compound": "C#Cc1cccc(Nc2ncnc3cc(OCCOC)c(OCCOC)cc23)c1", "note": "[Erlotinib]", "values": [{"measurement": "PDAC patients in whom treatment has shown benefit", "setting": "[3]; Moore et al. J Clin Oncol. 2007", "result": "about 10%"}, {"measurement": "prolongation of median survival", "setting": "[3]; addition to gemcitabine", "result": 2, "unit": "weeks"}]}
